Laboratory results: patent US8614236B2 (University of Washington, priority 2006, dated 2013)
“Also recorded” adds a separate entry of the source. One block for each compound: values may come before it. Bridge positions count the residues as written; N and C are the ends. Ends that are not written are not given here.

What was measured:
PASMCs [1] = test: Changes in membrane potential (Em) in PASMCs, DiBAC4(3) fluorescence; format: cell-based, rat; conditions: agent alone; for increase in DiBAC4(3) fluorescence: KCl 60 mM, ET-1 10^−8 M
Experimental: (§1) The method for obtaining single PASMCs has been described previously in Shimoda L. A., et al., Am J Physiol 274: 842-853 (1998), which is hereby incorporated by reference in its entirety. Intrapulmonary arteries (200-600 μm o.d.) were isolated from male Wistar rats (250-350 g) and cleaned of connective tissue. After the lumen was gently rubbed with a cotton swab to remove the endothelial cells, the arteries were allowed to recover for 30 minutes in cold (4° C.) HBSS containing (in mM): 130 NaCl, 5 KCl, 1.2 MgCl2, 1.5 CaCl2, 10 N-[2-hydroxyethyl]piperazine-N′-[2-ethanesulfonic acid] (HEPES) and 10 glucose, with pH adjusted to 7.2 with 5 M NaOH, followed by 20 minutes in reduced-Ca^2+ (20 μM CaCl2) HBSS at room temperature. The tissue was enzymatically digested in reduced-Ca^2+ HBSS containing collagenase (type I; 1750 U/ml), papain (9.5 U/ml), bovine serum albumin (2 mg/ml) and dithiothreitol (1 mM) at 37° C. for 20 minutes. Following digestion, single smooth muscle cells were dispersed by gentle trituration with a wide-bore transfer pipette in Ca^2+-free HBSS and the cell suspension was placed on 25 mm glass cover slips. PASMCs were transiently cultured in Ham's-F-12 media supplemented with 0.5% fetal bovine serum and 1% penicillin/streptomycin for 24-48 hrs. before study.
Changes in membrane potential were measured using the fluorescence dye, DiBAC4(3), which was excited at 490 nm and detected at 510 nm. Cells were loaded by continuous perfusion with Kreb's solution containing 500 nM DiBAC4(3) and were perfused for at least 15 minutes before beginning measurements to insure stable uptake of dye. Baseline DiBAC4(3) fluorescence was monitored for 5 minutes with control Kreb's, followed by 10 minutes with Kreb's in the presence or absence of AZ (100 μM). At the end of this period, cells were challenged with KCl (60 mM) or endothelin-1 (ET-1) (10^−8 M). Since DiBAC4(3) is a single wavelength dye, any change in the concentration of the dye in the perfusion medium (i.e., differing concentrations between perfusion reservoirs) could result in a change in fluorescence that is not due to a change in membrane potential. To minimize the possibility of this type of error, all experiments were performed using inflow from a single reservoir into which AZ, KCl or ET-1 were dissolved directly.
AZ has recently been proposed to alter the activation of Ca^2+-activated K^+ channels, causing hyperpolarization. See Pickkers P., et al., Br J Pharmacol 132: 443-450 (2001); Tricarico D., et al., Ann Neurol 48: 304-312 (2000); and Tricarico D., et al., Faseb J 18: 760-761 (2004), which are hereby incorporated by reference in their entirety. Since depolarization is believed to contribute to the hypoxia-induced increase in [Ca^2+]i, AZ-induced hyperpolarization could prevent activation of voltage-gated Ca^2+ channels and an increase in [Ca^2+]i in response to hypoxia. In order to test this possibility, the Em-sensitive fluorescent dye, DiBAC4(3) was used. […] Baseline fluorescence was relatively stable over time, decreasing by 4.11±0.4% over 10 minutes (n=90 cells).

PASMCs [2] = test: Basal intracellular Ca2+ concentration in PASMCs (Fura-2); format: cell-based, rat
Experimental: as §1, with “Intrapulmonary” for “The method for obtaining single PASMCs has been described previously in Shimoda L. A., et al., Am J Physiol 274: 842-853 (1998), which is hereby incorporated by reference in its entirety. Intrapulmonary”, “The tissue was enzymatically digested in reduced-Ca^2+ HBSS containing collagenase (type I; 1750 U/ml), papain (9.5 U/ml), bovine serum albumin (2 mg/ml) and dithiothreitol (1 mM) at 37° C. for 20 minutes.” left out
(§2) Acute hypoxia increases intracellular [Ca^2+] in pulmonary arterial smooth muscle by enhancing capacitative Ca^2+ entry. […] Ratiometric measurement of fluorescence from the dye was performed on a workstation (Intracellular Imaging Inc, Cincinnati, Ohio) consisting of a Nikon TSE 100 Ellipse inverted microscope with epi-fluorescence attachments. The light beam from a xenon arc lamp was filtered at 340 and 380 nm, and focused onto the PASMCS under examination via a 20× fluorescence objective (Super Fluor 20, Nikon). Light emitted from the cell at 510 nm was returned through the objective and detected by a cooled CCD imaging camera. An electronic shutter (Sutter Instruments) was used to minimize photobleaching of dye. Protocols were executed and data collected on-line with InCyte software (Intracellular Imaging Inc). [Ca^2+]i was estimated from in vitro calibration solutions.

PASMCs [3] = test: Hypoxia-induced increase in [Ca2+]i in PASMCs (4% O2); format: cell-based, rat
Experimental: as §1, with “Intrapulmonary” for “The method for obtaining single PASMCs has been described previously in Shimoda L. A., et al., Am J Physiol 274: 842-853 (1998), which is hereby incorporated by reference in its entirety. Intrapulmonary”, “The tissue was enzymatically digested in reduced-Ca^2+ HBSS containing collagenase (type I; 1750 U/ml), papain (9.5 U/ml), bovine serum albumin (2 mg/ml) and dithiothreitol (1 mM) at 37° C. for 20 minutes.” left out
as §2

PASMCs [4] = test: Intracellular pH (pHi) in PASMCs (BCECF-AM); format: cell-based, rat
Experimental: as §1
pHi within PASMCs was monitored using the cell permeant pH sensitive dye 2′,7′-bis(carboxyethyl)-5(6)-carboxyflourescein (BCECF-AM). Cells were incubated with BCECF-AM for 60 min at 37° C. under an atmosphere of 21% O2-5% CO2. Cells were then washed with Kreb's solution for 15 min at 37° C. to remove extracellular dye and allow complete de-esterification of cytosolic dye. Cells were excited with light at 490 and 440 nm and light emitted from the cells was detected at 530 nm. The ratio of 490 to 440 nm emission was calculated and converted into pH values by performing a calibration curve after each experiment. PASMCs were subjected to a high K^+ buffer containing 10 μM nigericin, which allowed the cell to adopt the pH of the high K^+ buffer. Two high K^+/nigericin buffers were used to set pH to 6.5 or 7.5, pHi was estimated from in situ calibration after each experiment. Cells were perfused with a solution containing (in mM): 105 KCl, 1 MgCl2, 1.5 CaCl2, 10 glucose, 20 HEPES-Tris and 0.01 nigericin to allow pHi to equilibrate to external pH as in Quinn D. A., et al., Am J Respir Cell Mol Biol 5: 586-591 (1991), which is hereby incorporated by reference in its entirety. A two point calibration was created from fluorescence measured as pHi was adjusted with KOH from 6.5 to 7.5. Intracellular H^+ ion concentration ([H^+]i) was determined from pHi using the formula: pHi=−log ([H^+]i).

carbonic anhydrase = test: Carbonic anhydrase inhibition; format: biochemical
From the text: Benzolamide (BZ) was obtained from Dr. Thomas H. Maren, University of Florida Department of Pharmacology.

PASMCs [5] = test: KCl-induced Ca2+ responses in PASMCs; format: cell-based, rat; conditions: 100 μM
Experimental: as §1, with “Intrapulmonary” for “The method for obtaining single PASMCs has been described previously in Shimoda L. A., et al., Am J Physiol 274: 842-853 (1998), which is hereby incorporated by reference in its entirety. Intrapulmonary”, “The tissue was enzymatically digested in reduced-Ca^2+ HBSS containing collagenase (type I; 1750 U/ml), papain (9.5 U/ml), bovine serum albumin (2 mg/ml) and dithiothreitol (1 mM) at 37° C. for 20 minutes.” left out
as §2

Compound: CC(N/C(=N\C#N)Nc1ccncc1)C(C)(C)C (stereo not drawn) [pinacidil]
decrease in DiBAC4(3) fluorescence (PASMCs [1]; 100 μM): 19.76±3.3%

CA inhibiting action (carbonic anhydrase): no CA inhibiting action
Compound: CNS(=O)(=O)c1nnc(NC(C)=O)s1 [N-Meth-AZ]
basal [Ca^2+]i, Treatment (PASMCs [2]; 100 μM, after 10 min of perfusion): 200.9 ± 11.3 nM | basal [Ca^2+]i, Baseline (PASMCs [2]; before perfusion with the compound): 193.4 ± 11.0 nM | increase in [Ca^2+]i induced by hypoxia (PASMCs [3]; 100 μM, control 141.1±32.2 nM): 33.2 ± 17.4 nM | effect on hypoxia-induced increase in [Ca^2+]i (PASMCs [3]; 10-100 μM): markedly reduced; also recorded: prevented | basal pHi, Treatment (PASMCs [4]; 100 μM): 7.12±0.01 | effect on basal pHi (PASMCs [4]; 100 μM): no significant effect; also recorded: minimal effect | basal pHi, Baseline (PASMCs [4]; before the compound): 7.13±0.02 | effect on KCl-induced increase in [Ca^2+]i (PASMCs [5]): similar

Compound: [Cl-].[K+] [KCl]
increase in DiBAC4(3) fluorescence (PASMCs [1]): 61.58±12.8%

Compound: endothelin-1 (CSCSSLMDKECVYFCHLDIIW; disulfide 1-15, 3-11; ends not checked; UniProt P05305 53-73, looked up) [ET-1]
increase in DiBAC4(3) fluorescence (PASMCs [1]): 75.6±13.4%
